# Measurements published in patent publication US20250339415A1, “DISULFIDE COMPOUNDS AS MEDICAMENTS” (CYTACOAT AB, priority 2021, published 2025).
# Key:
# Type in all cases: cell-based
# [1] = system: S. aureus; assay: Combination therapy: Fradiomycin with PDEA, visible growth; settings: no PDEA
# Description: (§1) Different concentrations of Fradiomycin in Mueller Hinton were prepared in 3 different concentrations of PDEA. E. coli and S. aureus were inoculated (10^5) and were incubated overnight. Readouts were “Clear” and “Foggy”.
# [2] = system: E. coli; assay: as above; settings: no PDEA
# Description: as §1
# [3] = system: S. aureus; assay: Combination therapy: Gentamycin with PDEA, visible growth; settings: No PDEA
# Description: (§2) Different concentrations of Gentamycin in Mueller Hinton were prepared in 3 different concentrations of PDEA. E. coli and S. aureus were inoculated (10^5) and were incubated O/N.
# (§3) Readouts were “Clear” and “Foggy”.
# [4] = system: E. coli; assay: as above; settings: No PDEA
# Description: as §2, §3
molecule,measurement,setting,value
NC[C@@H]1O[C@H](O[C@H]2[C@@H](O)[C@H](O[C@@H]3[C@@H](O)[C@H](N)C[C@H](N)[C@H]3O[C@H]3O[C@H](CN)[C@@H](O)[C@H](O)[C@H]3N)O[C@@H]2CO)[C@H](N)[C@@H](O)[C@@H]1O [Fradiomycin],visible growth readout,[1]; Fradiomycin 0.0156 μg/ml,Foggy
same,visible growth readout,[1]; Fradiomycin 0.03125 μg/ml,Foggy
same,visible growth readout,[1]; Fradiomycin 0.0625 μg/ml,Foggy
same,visible growth readout,[1]; Fradiomycin 0.125 μg/ml,Foggy
same,visible growth readout,[1]; Fradiomycin 0.25 μg/ml,Foggy
same,visible growth readout,[1]; Fradiomycin 0.5 μg/ml,Foggy
same,visible growth readout,[1]; Fradiomycin 1 μg/ml,Clear
same,visible growth readout,[1]; Fradiomycin 2 μg/ml,Clear
same,visible growth readout,[1]; Fradiomycin 4 μg/ml,Clear
same,visible growth readout,[1]; Fradiomycin 8 μg/ml,Clear
same,visible growth readout,[1]; Fradiomycin 16 μg/ml,Clear
same,visible growth readout,[1]; Fradiomycin 32 μg/ml,Clear
same,visible growth readout,[1]; Fradiomycin 64 μg/ml,Clear
same,visible growth readout,[1]; Fradiomycin 128 μg/ml,Clear
same,visible growth readout,[1]; Fradiomycin 256 μg/ml,Clear
same,visible growth readout,[2]; Fradiomycin 0.0156 μg/ml,Foggy
same,visible growth readout,[2]; Fradiomycin 0.03125 μg/ml,Foggy
same,visible growth readout,[2]; Fradiomycin 0.0625 μg/ml,Foggy
same,visible growth readout,[2]; Fradiomycin 0.125 μg/ml,Foggy
same,visible growth readout,[2]; Fradiomycin 0.25 μg/ml,Foggy
same,visible growth readout,[2]; Fradiomycin 0.5 μg/ml,Foggy
same,visible growth readout,[2]; Fradiomycin 2 μg/ml,Clear
same,visible growth readout,[2]; Fradiomycin 4 μg/ml,Clear
same,visible growth readout,[2]; Fradiomycin 8 μg/ml,Clear
same,visible growth readout,[2]; Fradiomycin 16 μg/ml,Clear
same,visible growth readout,[2]; Fradiomycin 32 μg/ml,Clear
same,visible growth readout,[2]; Fradiomycin 64 μg/ml,Clear
same,visible growth readout,[2]; Fradiomycin 128 μg/ml,Clear
same,visible growth readout,[2]; Fradiomycin 256 μg/ml,Clear
Gentamycin,Visible growth readout (Clear/Foggy),[3]; Gentamycin 0.0156 μg/ml,Foggy
same,Visible growth readout (Clear/Foggy),[3]; Gentamycin 0.03125 μg/ml,Foggy
same,Visible growth readout (Clear/Foggy),[3]; Gentamycin 0.0625 μg/ml,Foggy
same,Visible growth readout (Clear/Foggy),[3]; Gentamycin 0.125 μg/ml,Foggy
same,Visible growth readout (Clear/Foggy),[3]; Gentamycin 0.25 μg/ml,Clear
same,Visible growth readout (Clear/Foggy),[3]; Gentamycin 0.5 μg/ml,Clear
same,Visible growth readout (Clear/Foggy),[3]; Gentamycin 1 μg/ml,Clear
same,Visible growth readout (Clear/Foggy),[3]; Gentamycin 2 μg/ml,Clear
same,Visible growth readout (Clear/Foggy),[3]; Gentamycin 4 μg/ml,Clear
same,Visible growth readout (Clear/Foggy),[3]; Gentamycin 8 μg/ml,Clear
same,Visible growth readout (Clear/Foggy),[3]; Gentamycin 16 μg/ml,Clear
same,Visible growth readout (Clear/Foggy),[3]; Gentamycin 32 μg/ml,Clear
same,Visible growth readout (Clear/Foggy),[3]; Gentamycin 64 μg/ml,Clear
same,Visible growth readout (Clear/Foggy),[3]; Gentamycin 128 μg/ml,Clear
same,Visible growth readout (Clear/Foggy),[3]; Gentamycin 256 μg/ml,Clear
same,Visible growth readout (Clear/Foggy),[4]; Gentamycin 0.0156 μg/ml,Foggy
same,Visible growth readout (Clear/Foggy),[4]; Gentamycin 0.03125 μg/ml,Foggy
same,Visible growth readout (Clear/Foggy),[4]; Gentamycin 0.0625 μg/ml,Foggy
same,Visible growth readout (Clear/Foggy),[4]; Gentamycin 0.125 μg/ml,Foggy
same,Visible growth readout (Clear/Foggy),[4]; Gentamycin 0.25 μg/ml,Foggy
same,Visible growth readout (Clear/Foggy),[4]; Gentamycin 0.5 μg/ml,Foggy
same,Visible growth readout (Clear/Foggy),[4]; Gentamycin 1 μg/ml,Clear
same,Visible growth readout (Clear/Foggy),[4]; Gentamycin 2 μg/ml,Clear
same,Visible growth readout (Clear/Foggy),[4]; Gentamycin 4 μg/ml,Clear
same,Visible growth readout (Clear/Foggy),[4]; Gentamycin 8 μg/ml,Clear
same,Visible growth readout (Clear/Foggy),[4]; Gentamycin 16 μg/ml,Clear
same,Visible growth readout (Clear/Foggy),[4]; Gentamycin 32 μg/ml,Clear
same,Visible growth readout (Clear/Foggy),[4]; Gentamycin 64 μg/ml,Clear
same,Visible growth readout (Clear/Foggy),[4]; Gentamycin 128 μg/ml,Clear
same,Visible growth readout (Clear/Foggy),[4]; Gentamycin 256 μg/ml,Clear
